Read-outs that look alike come from different tables or passages of the source.
Assays:
CAMKK2 = system: CAMKK2; design: method as in Klaeger et al. (2017); settings: lysate 4 cell line mix (Colo205, K-562, MV-4-11, and SK-N-BE(2)), Kinobeads y, ref Klaeger et al. (2017); cited from earlier work
MAPK8 [1] = system: MAPK8; design: method as in Klaeger et al. (2017); settings: lysate 4 cell line mix (Colo205, K-562, MV-4-11, and SK-N-BE(2)), Kinobeads y, ref Klaeger et al. (2017); cited from earlier work
TGFBR1 = system: TGFBR1; design: method as in Klaeger et al. (2017); settings: lysate 4 cell line mix (Colo205, K-562, MV-4-11, and SK-N-BE(2)), Kinobeads y, ref Klaeger et al. (2017); cited from earlier work
SLK [2] = system: SLK; design: method as in Klaeger et al. (2017); settings: lysate 4 cell line mix (Colo205, K-562, MV-4-11, and SK-N-BE(2)), Kinobeads y, ref Klaeger et al. (2017); cited from earlier work
RPS6KA3 = system: RPS6KA3; design: method as in Klaeger et al. (2017); settings: lysate 4 cell line mix (Colo205, K-562, MV-4-11, and SK-N-BE(2)), Kinobeads y, ref Klaeger et al. (2017); cited from earlier work
GAK = system: GAK; design: method as in Klaeger et al. (2017); settings: lysate 4 cell line mix (Colo205, K-562, MV-4-11, and SK-N-BE(2)), Kinobeads y, ref Klaeger et al. (2017); cited from earlier work
PANC-1 = assay: cells; design: ATPlite luminescence viability of PDAC cell lines, 11-dose single-agent curves, 4-parameter fit; settings: Homo sapiens, PANC-1, 72 h, read-out: EC50 [nM]
How it was run: (§1)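 Drug-combination screening used cells plated at 1000 to 5000 per well one day before treatment. Final DMSO was 0.2%. Each plate held untreated negative-control wells and 5 µM staurosporine positive-control wells.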

PRKCA = system: PRKCA; design: method as in Klaeger et al. (2017); settings: lysate 4 cell line mix (Colo205, K-562, MV-4-11, and SK-N-BE(2)), Kinobeads y, ref Klaeger et al. (2017); cited from earlier work
MAP3K5 = system: MAP3K5; design: method as in Klaeger et al. (2017); settings: lysate 4 cell line mix (Colo205, K-562, MV-4-11, and SK-N-BE(2)), Kinobeads y, ref Klaeger et al. (2017); cited from earlier work
PLK1 = system: PLK1; design: method as in Reinecke et al. (2023); settings: PLK1, 5 cell line mix lysate, Kinobeads ε, ref Reinecke et al. (2023), cited from earlier work
PRKCD = biological target: PRKCD; design: method as in Reinecke et al. (2023); settings: 5 cell line mix lysate, Kinobeads ε, ref Reinecke et al. (2023), cited from earlier work
YES1 = system: YES1; design: method as in Reinecke et al. (2023); settings: YES1, 5 cell line mix lysate, Kinobeads ε, ref Reinecke et al. (2023), cited from earlier work
MAPK8 [3] = system: MAPK8; design: method as in Reinecke et al. (2023); settings: MAPK8, 5 cell line mix lysate, Kinobeads ε, ref Reinecke et al. (2023), cited from earlier work
PRKAG1 = system: PRKAG1; design: method as in Reinecke et al. (2023); settings: PRKAG1, 5 cell line mix lysate, Kinobeads ε, ref Reinecke et al. (2023), cited from earlier work
SLK [4] = biological target: SLK; design: method as in Reinecke et al. (2023); settings: 5 cell line mix lysate, Kinobeads ε, ref Reinecke et al. (2023), cited from earlier work
LOC102724428;SIK1 = system: LOC102724428;SIK1; design: method as in Reinecke et al. (2023); settings: LOC102724428;SIK1, 5 cell line mix lysate, Kinobeads ε, ref Reinecke et al. (2023), cited from earlier work
MAPK9 = system: MAPK9; design: method as in Reinecke et al. (2023); settings: MAPK9, 5 cell line mix lysate, Kinobeads ε, ref Reinecke et al. (2023), cited from earlier work
NUAK2 = system: NUAK2; design: method as in Reinecke et al. (2023); settings: NUAK2, 5 cell line mix lysate, Kinobeads ε, ref Reinecke et al. (2023), cited from earlier work
Dan-G = assay: cells; design: ATPlite luminescence viability of PDAC cell lines, 11-dose single-agent curves, 4-parameter fit; settings: 72 h, read-out: EC50 [nM]
How it was run: as §1

C[C@]12O[C@H](C[C@]1(O)CO)n1c3ccccc3c3c4c(c5c6ccccc6n2c5c31)CNC4=O [Lestaurtinib]
EC50 (MAPK8 [1]): 1.21 µM
EC50 (RPS6KA3): 2.79 µM
EC50 (PANC-1): > 10000 nM
EC50 (PRKCA): 2.47 µM
EC50 (MAP3K5): 0.788 µM

COc1cc(N2CCC(N3CCN(C)CC3)CC2)ccc1Nc1ncc(Cl)c(Nc2ccccc2P(C)(C)=O)n1 [Brigatinib]
EC50 (PLK1): 1.1 µM
pKDapp (PLK1): 5.99
Kd (PLK1; read-out: KDapp): 1.01 µM
Kd (PRKCD; read-out: KDapp): 24.5 µM
EC50 (PRKCD): 25.8 µM
pKDapp (PRKCD): 4.61
EC50 (YES1): 0.821 µM
pKDapp (YES1): 6.47
Kd (YES1; read-out: KDapp): 0.339 µM
EC50 (MAPK8 [3]): 2.2 µM
pKDapp (MAPK8 [3]): 5.85
Kd (MAPK8 [3]; read-out: KDapp): 1.42 µM
EC50 (PRKAG1): 0.559 µM
pKDapp (PRKAG1): 6.45
Kd (PRKAG1; read-out: KDapp): 0.354 µM
Kd (SLK [4]; read-out: KDapp): 0.466 µM
EC50 (SLK [4]): 0.523 µM
pKDapp (SLK [4]): 6.33
EC50 (LOC102724428;SIK1): 0.106 µM
pKDapp (LOC102724428;SIK1): 6.98
Kd (LOC102724428;SIK1; read-out: KDapp): 0.106 µM
EC50 (MAPK9): 2.11 µM
pKDapp (MAPK9): 5.83
Kd (MAPK9; read-out: KDapp): 1.48 µM
EC50 (NUAK2): 0.0885 µM
pKDapp (NUAK2): 7.17
Kd (NUAK2; read-out: KDapp): 0.0683 µM

CCN1CCN(Cc2ccc(Nc3ncc(F)c(-c4cc(F)c5nc(C)n(C(C)C)c5c4)n3)nc2)CC1 [Abemaciclib]
EC50 (Dan-G): > 10000 nM

Reference: paper PMC11876601 (Molecular Systems Biology, 2025)
